# Marks after values point to notes of the source that are not given here.
# Experiments:
# [1] = test system: ApoE-KO mice infused with angiotensin II; assay: Angiotensin II-induced abdominal aortic aneurysm in apoE-KO mice; format: in vivo
# From the text: Infusion of apoE-KO mice (Jackson Laboratories, Bar Harbor, Me.) with angiotensin II has been reported to lead to the formation of large abdominal aortic aneurysms (Daugherty et al. (2000) J. Clin. Invest. 105:1605-1612). This system can be used as a model system in which to study the effects of the Rho-kinase inhibitors of the present invention on these conditions, using the methods described in Wang et al. (2001) American J. Path. 159:1455-1464. (See Example 1).
# (§1) For some parameters measured, comparative data was also collected for C57 Black mice, the mouse strain from which the ApoE-KO mouse is derived.
# [2] = test system: ApoE-KO mice infused with angiotensin II; assay: Angiotensin II-induced cardiac hypertrophy in apoE-KO mice; format: in vivo
# [3] = test system: ApoE-KO mice infused with angiotensin II; assay: Blood pressure, heart rate, serum cholesterol, aortic arch lesion area and aortic stiffness in Ang II-infused apoE-KO mice; format: in vivo
# From the text: as §1
# [4] = test system: supra-renal aortic wall in apoE-KO mice; assay: Apoptosis in aortic tissue (TUNEL, cell death detection ELISA, H & E staining); format: in vivo; details: for apoptosis: TUNEL staining, supra-renal aorta, FIG. 2
# Experimental: FIG. 3. To further quantify apoptosis in the aortic tissue, cell death detection ELISA assay was performed.
# [5] = test system: Rho-kinase; details: cited from earlier work
compound,measurement,setting,value
"O=S(=O)(c1cccc2cnccc12)N1CCCNCC1 [Fasudil, Hexahydro-1-(5-isoquinolylsulfonyl)-1H-1,4-diazepine]",Diameter (mm),"[1]; Ang II for 30 days, fasudil in drinking water, postmortem direct measurement",1.5 ± 0.1 mm
same,Incidence (%),"[1]; abdominal aortic aneurysm, Ang II 1.44 mg/kg per day for 30 days, fasudil 1 mg/ml in drinking water",41# %
same,incidence of abdominal aortic aneurysm formation,"[1]; oral, >100 mg/kg daily in drinking water, n=20, p<0.05 vs. controls",35%
same,decrease in the size of aneurysms,"[1]; versus Ang II treated ApoE-KO mice, FIG. 1, fasudil 0.5 mg/ml and 1 mg/ml in drinking water",29%
same,Heart/body Wt,"[2]; Ang II for 30 days, fasudil in drinking water",6.1 ± 0.1
same,Myocyte (mm^2),"[2]; cardiomyocyte size, Ang II for 30 days, fasudil in drinking water",262 ± 16# mm^2
same,gene expression of ANP and collagen III,[2]; heart of apoE-KO mice,normalized
same,angiotensin-II induced cardiac hypertrophy,[2]; measured by heart weight or cardiomyocyte size,significantly reduced
same,cardiac function,"[2]; mouse, in vivo",improved
same,perivascular fibrosis,"[2]; mouse, in vivo",reduced
same,decrease in the degree of cardiac hypertrophy,"[2]; versus Ang II treated ApoE-KO mice, FIG. 4, fasudil 0.5 mg/ml and 1 mg/ml",14%
same,Lesion (%),"[3]; aortic arch atherosclerotic lesion area, Ang II for 30 days, fasudil in drinking water",25 ± 3%
same,effect on aortic arch atherosclerotic lesion area,"[3]; mouse, in vivo",no effect
same,effect on aortic stiffness,"[3]; mouse, in vivo",no effect
same,effect on serum cholesterol,"[3]; mouse, in vivo",no effect
same,effect on heart rate,[3]; tail cuff instrumentation,no effect
same,effect on systolic blood pressure (SBP),[3]; tail cuff instrumentation,no effect
same,"aortic wall changes (adventitial fibrosis, inflammation, destruction of smooth muscle cells and elastin)","[4]; H & E staining, high dose fasudil, animals with aneurysm","ameliorated, but not fully eliminated"
same,apoptosis,[4],reducing apoptosis
same,apoptosis,[4]; listed as fasudil,decreased apoptosis
same,cytosolic DNA fragmentation increased by Ang II,"[4]; cell death detection ELISA, aortic tissue, P<0.01, FIG. 3",abolished
O=S(=O)(c1cccc2c(O)nccc12)N1CCCNCC1 [hydroxyfasudil],specificity of the inhibitory effect on Rho-kinase,[5],more specific inhibitory effect on Rho-kinase

# From patent US20050014783A1, “Use of Rho-kinase inhibitors in the treatment of aneurysm and cardiac hypertrophy” (Schering Aktiengesellschaft, priority 2003, published 2005)
